Measurements taken from publication PMC10579241, “Impact of trifluoromethyl and sulfonyl groups on the biological activity of novel aryl-urea derivatives: synthesis, in-vitro, in-silico and SAR studies” (Scientific Reports, 2023).
≈ marks a conversion by molar mass, not a printed value. Like-named read-outs stand apart in the source and are kept apart here.

Key:
Assay type in all cases: cell-based
[1] = system: Candida albicans; assay: Agar well diffusion, C. albicans
[2] = system: Escherichia coli; assay: Agar well diffusion, E. coli
[3] = system: Bacillus mycoides; assay: microbe, parasite or virus in culture
[4] = system: hepatocellular carcinoma cell line (HePG2); assay: cells; conditions: Homo sapiens, 48 h; for mortality at 100 µg/mL: 100 μg/mL; for IC50: MTT
[5] = system: osteosarcoma cell line (HOS); assay: cells; conditions: Homo sapiens, 48 h, 100 μg/mL
[6] = system: prostate cancer (PC3); assay: cells; conditions: Homo sapiens, 48 h; for mortality at 100 µg/mL: 100 μg/mL
[7] = system: skin cancer (A431); assay: cells; conditions: Homo sapiens, A-431, 100 μg/mL, 48 h
[8] = system: colon cancer (HCT116); assay: cells; conditions: Homo sapiens; for mortality at 100 µg/mL: HCT-116, 48 h, 100 μg/mL
[9] = system: pancreatic cancer cell line (PACA2); assay: cells; conditions: Homo sapiens, PaCa-2, 48 h; for mortality at 100 µg/mL: 100 μg/mL
[10] = system: human lung carcinoma (A549); assay: cells; conditions: for mortality at 100 µg/mL: A549, 48 h, 100 μg/mL
[11] = in vitro; conditions: human, BJ1 normal skin fibroblast cells, 100 μg/mL
[12] = system: Bacillus mycoides; assay: microbe, parasite or virus in culture; remark: listed apart in the source
[13] = system: Candida albicans; assay: MIC by serial dilution (agar wells), C. albicans
[14] = system: Escherichia coli; assay: MIC by serial dilution (agar wells), E. coli
[15] = Bacillus mycoides, read-out: Inhibition zones diameter
[16] = Candida albicans, read-out: Inhibition zones diameter
[17] = Escherichia coli, read-out: Inhibition zones diameter
[18] = read-out: Minimum inhibition concentration (MIC)
[19] = 0.00488 mg/mL, 150 µL in DMSO, 15 mm agar well
[20] = 0.00975 mg/mL, 150 µL in DMSO, 15 mm agar well
[21] = 0.0195 mg/mL, 150 µL in DMSO, 15 mm agar well
[22] = 0.0391 mg/mL, 150 µL in DMSO, 15 mm agar well
[23] = 0.0781 mg/mL, 150 µL in DMSO, 15 mm agar well
[24] = 0.1563 mg/mL, 150 µL in DMSO, 15 mm agar well
[25] = 0.3125 mg/mL, 150 µL in DMSO, 15 mm agar well
[26] = 0.625 mg/mL, 150 µL in DMSO, 15 mm agar well
[27] = 1.25 mg/mL, 150 µL in DMSO, 15 mm agar well
[28] = 2.50 mg/mL, 150 µL in DMSO, 15 mm agar well
[29] = 5.00 mg/mL, 150 µL in DMSO, 15 mm agar well
[30] = 10.0 mg/mL, 150 µL in DMSO, 15 mm agar well

Compound `NC[C@H]1O[C@H](O[C@H]2[C@H](O)[C@@H](O[C@H]3O[C@H](CO)[C@@H](O)[C@H](N)[C@H]3O)[C@H](N)C[C@@H]2N)[C@H](N)C[C@@H]1O` [Tobramycin, reference compound] has a zone of inhibition at 10 µg/disc ([1]; Candida albicans, C. albicans, reference antibiotic 10 mcg, read-out: Inhibition zones diameter) of 12 ± 0.61 mm, a zone of inhibition at 10 µg/disc ([2]; Escherichia coli, E. coli, reference antibiotic 10 mcg, read-out: Inhibition zones diameter) of 13 ± 0.22 mm and a zone of inhibition at 10 µg/disc [3, 15] of 10 ± 0.31 mm.
Compound `Cc1ccc(NC(=O)Nc2ccc(C(F)(F)F)cc2)cc1` [Compound 13, 1-(p-Tolyl)-3-[4-(trifluoromethyl)phenyl]urea] has a mortality at 100 µg/mL [4] of 100%, an IC50 [4] of 121.7 ± 0.85 µM and a mortality at 100 µg/mL [5] of ~74.3%. It also gave a mortality at 100 µg/mL [6] of 47.2 ± 0.63%, a mortality at 100 µg/mL [7] of 1.3 ± 0.78% and a zone of inhibition at 10000 µg/mL [1, 16] of 18 ± 0.66 mm. It also gave a zone of inhibition at 10000 µg/mL [2, 17] of 18 ± 1.84 mm, a mortality at 100 µg/mL [8] of 11.5 ± 1.19% and a mortality at 100 µg/mL [9] of 35.8 ± 0.91%. The mortality at 100 µg/mL [10] was 3.5 ± 0.55%, the mortality at 48 h, 100 µg/mL [11] was 84.2 ± 1.61% and the zone of inhibition at 10000 µg/mL [3, 15] was 16 ± 0.41 mm.
With `Cc1ccc(NC(=O)Nc2ccccc2C(F)(F)F)cc1` [Compound 17, 1-(p-Tolyl)-3-[2-(trifluoromethyl)phenyl]urea] the mortality at 100 µg/mL [4] was 71.2 ± 1.45%, the IC50 [4] was 199.3 ± 0.82 µM and the mortality at 100 µg/mL [5] was > 50%. For the same compound, the mortality at 100 µg/mL [6] was > 50%, the mortality at 100 µg/mL [7] was 3.1 ± 1.14% and the zone of inhibition at 10000 µg/mL [1, 16] was 15 ± 0.42 mm. For the same compound, the zone of inhibition at 10000 µg/mL [2, 17] was 16 ± 0.54 mm, the mortality at 100 µg/mL [8] was 7.5 ± 0.92% and the mortality at 100 µg/mL [9] was > 50%. It also gave a mortality at 100 µg/mL [10] of 7.3 ± 0.35% and a zone of inhibition at 10000 µg/mL [3, 15] of 18 mm.
`CC[C@H]1OC(=O)[C@H](C)[C@@H](O[C@H]2C[C@@](C)(OC)[C@@H](O)[C@H](C)O2)[C@H](C)[C@@H](O[C@@H]2O[C@H](C)C[C@H](N(C)C)[C@H]2O)[C@](C)(O)C[C@@H](C)C(=O)[C@H](C)[C@@H](O)[C@]1(C)O` [Erythromycin, reference compound] showed a zone of inhibition at 15 µg/disc ([1]; Candida albicans, C. albicans, reference antibiotic 15 mcg, read-out: Inhibition zones diameter) of 25 mm, a zone of inhibition at 15 µg/disc ([2]; Escherichia coli, E. coli, reference antibiotic 15 mcg, read-out: Inhibition zones diameter) of 29 ± 2.13 mm and a zone of inhibition at 15 µg/disc [3, 15] of 17 ± 0.15 mm.
For `Cc1ccc(S(=O)(=O)NC(=O)Nc2ccccc2C(F)(F)F)cc1` [Compound 11, 4-Methyl-N-[(2-{trifluoromethyl}phenyl)carbamoyl]benzenesulfonamide], the zone of inhibition at 4.88 µg/mL ([12]; read-out: Inhibition zone) was 0 mm, the zone of inhibition at 9.75 µg/mL ([12]; read-out: Inhibition zone) was 0 mm and the zone of inhibition at 19.5 µg/mL ([12]; read-out: Inhibition zone) was 0 mm. It also gave a zone of inhibition at 39.1 µg/mL ([12]; read-out: Inhibition zone) of 15 mm, a zone of inhibition at 78.1 µg/mL ([12]; read-out: Inhibition zone) of 16 mm and a zone of inhibition at 156.3 µg/mL ([12]; read-out: Inhibition zone) of 16 mm. For the same compound, the zone of inhibition at 312.5 µg/mL ([12]; read-out: Inhibition zone) was 17 mm, the zone of inhibition at 625 µg/mL ([12]; read-out: Inhibition zone) was 17 mm and the zone of inhibition at 1250 µg/mL ([12]; read-out: Inhibition zone) was 18 mm. The zone of inhibition at 2500 µg/mL ([12]; read-out: Inhibition zone) was 22 mm, the zone of inhibition at 5000 µg/mL ([12]; read-out: Inhibition zone) was 24 mm and the zone of inhibition at 10000 µg/mL ([12]; read-out: Inhibition zone) was 27 mm. It also gave an MIC [12, 18] of 39.1 µg/mL (≈ 109 µM), a mortality at 100 µg/mL [5] of 44.2 ± 1.11% and an IC50 ([6]; MTT) of 114.7 ± 0.21 µM. The mortality at 100 µg/mL [7] was 10.5 ± 1.13%, the zone of inhibition at 4.88 µg/mL [13, 19] was 0 mm and the zone of inhibition at 9.75 µg/mL [13, 20] was 0 mm. The zone of inhibition at 19.5 µg/mL [13, 21] was 0 mm, the zone of inhibition at 39.1 µg/mL [13, 22] was 0 mm and the zone of inhibition at 78.1 µg/mL [13, 23] was 16 mm. For the same compound, the zone of inhibition at 156.3 µg/mL [13, 24] was 17 mm, the zone of inhibition at 312.5 µg/mL [13, 25] was 20 mm and the zone of inhibition at 625 µg/mL [13, 26] was 22 mm. The zone of inhibition at 1250 µg/mL [13, 27] was 24 mm, the zone of inhibition at 2500 µg/mL [13, 28] was 25 mm and the zone of inhibition at 5000 µg/mL [13, 29] was 26 mm. The zone of inhibition at 10000 µg/mL [13, 30] was 28 mm, the MIC [13, 18] was 78.1 µg/mL (≈ 218 µM) and the Inhibition zones diameter ([1]; C. albicans, 200 μL of 10 mg/mL in DMSO in 15 mm holes, overnight 37 °C) was 32 ± 0.17 mm. It also gave a zone of inhibition at 10000 µg/mL [1, 16] of 32 mm, a zone of inhibition at 10000 µg/mL [2, 17] of 27 ± 0.58 mm and a zone of inhibition at 4.88 µg/mL [14, 19] of 0 mm. The zone of inhibition at 9.75 µg/mL [14, 20] was 0 mm, the zone of inhibition at 19.5 µg/mL [14, 21] was 0 mm and the zone of inhibition at 39.1 µg/mL [14, 22] was 0 mm. The zone of inhibition at 78.1 µg/mL [14, 23] was 0 mm, the zone of inhibition at 156.3 µg/mL [14, 24] was 16 mm and the zone of inhibition at 312.5 µg/mL [14, 25] was 18 mm. For the same compound, the zone of inhibition at 625 µg/mL [14, 26] was 20 mm, the zone of inhibition at 1250 µg/mL [14, 27] was 22 mm and the zone of inhibition at 2500 µg/mL [14, 28] was 24 mm. For the same compound, the zone of inhibition at 5000 µg/mL [14, 29] was 28 mm, the zone of inhibition at 10000 µg/mL [14, 30] was 30 mm and the MIC [14, 18] was 156 µg/mL (≈ 436 µM). The mortality at 100 µg/mL [8] was > 75%, the IC50 ([8]; HCT-116, MTT, 48 h) was 161.6 ± 0.24 µM and the IC50 ([9]; MTT) was 80.7 µM. It also gave an IC50 ([10]; MTT, 48 h) of 149.3 ± 0.23 µM, a mortality at 48 h, 100 µg/mL [11] of 19.2 ± 0.57% and an Inhibition zones diameter ([3]; B. mycoides, 200 μL of 10 mg/mL in DMSO in 15 mm holes, overnight 37 °C) of 31 ± 0.52 mm. It also gave a zone of inhibition at 10000 µg/mL [3, 15] of 31 mm.
Compound Colstin [reference compound] has an Inhibition zones diameter ([1]; C. albicans, reference antibiotic 10 mcg) of 0 mm, an Inhibition zones diameter ([2]; E. coli, reference antibiotic 10 mcg) of 0 mm and an Inhibition zones diameter [3] of 0 mm.
